Activity calls are given as the source filed them.
Assays:
Cytochrome P450 3A4 = Cytochrome P450 3A4 (Homo sapiens, UniProt P08684);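 further: CYP3A4 tested as one member of a cytochrome P450 panel screen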
Cytochrome P450 2C9 = Cytochrome P450 2C9 (Homo sapiens, UniProt P11712)
Hexokinase HKDC1 = molecular target: T1, Hexokinase HKDC1 (Homo sapiens, UniProt Q2TB90); test: HKDC1 hexokinase activators, dose response, biochemical, W721R variant (AID 504730); assay type: functional
T1 sequence (Q2TB90 whole entry): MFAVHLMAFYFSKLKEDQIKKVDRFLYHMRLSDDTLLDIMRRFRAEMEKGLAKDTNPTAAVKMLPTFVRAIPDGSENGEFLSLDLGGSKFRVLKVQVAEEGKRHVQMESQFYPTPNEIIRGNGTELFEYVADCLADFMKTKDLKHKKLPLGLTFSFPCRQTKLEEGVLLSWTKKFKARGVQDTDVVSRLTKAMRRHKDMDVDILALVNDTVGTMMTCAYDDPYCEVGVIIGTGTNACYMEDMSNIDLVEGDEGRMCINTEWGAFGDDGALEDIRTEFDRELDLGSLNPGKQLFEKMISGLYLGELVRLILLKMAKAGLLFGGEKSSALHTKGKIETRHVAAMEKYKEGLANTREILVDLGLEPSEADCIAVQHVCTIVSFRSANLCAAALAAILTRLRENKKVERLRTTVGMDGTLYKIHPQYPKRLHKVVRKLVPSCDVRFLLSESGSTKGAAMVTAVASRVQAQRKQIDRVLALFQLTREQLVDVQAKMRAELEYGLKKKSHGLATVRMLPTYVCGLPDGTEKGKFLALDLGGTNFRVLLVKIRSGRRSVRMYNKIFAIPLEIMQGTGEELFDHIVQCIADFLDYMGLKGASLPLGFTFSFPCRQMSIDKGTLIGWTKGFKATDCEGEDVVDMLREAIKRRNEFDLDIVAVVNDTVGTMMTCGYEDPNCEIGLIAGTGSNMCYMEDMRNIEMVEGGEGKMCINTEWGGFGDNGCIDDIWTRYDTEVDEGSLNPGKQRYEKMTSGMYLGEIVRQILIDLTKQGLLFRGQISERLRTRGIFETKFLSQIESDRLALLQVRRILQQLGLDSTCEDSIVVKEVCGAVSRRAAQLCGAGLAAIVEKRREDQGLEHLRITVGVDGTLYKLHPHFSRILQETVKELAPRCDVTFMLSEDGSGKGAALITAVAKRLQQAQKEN

Hexokinase-1 = molecular target: T2, Hexokinase-1 (Homo sapiens, UniProt P19367); test: hexokinase 1 activators, dose response, selectivity assay for HKDC1 activator project, biochemical (AID 504762); assay type: functional
T2 sequence (P19367 whole entry): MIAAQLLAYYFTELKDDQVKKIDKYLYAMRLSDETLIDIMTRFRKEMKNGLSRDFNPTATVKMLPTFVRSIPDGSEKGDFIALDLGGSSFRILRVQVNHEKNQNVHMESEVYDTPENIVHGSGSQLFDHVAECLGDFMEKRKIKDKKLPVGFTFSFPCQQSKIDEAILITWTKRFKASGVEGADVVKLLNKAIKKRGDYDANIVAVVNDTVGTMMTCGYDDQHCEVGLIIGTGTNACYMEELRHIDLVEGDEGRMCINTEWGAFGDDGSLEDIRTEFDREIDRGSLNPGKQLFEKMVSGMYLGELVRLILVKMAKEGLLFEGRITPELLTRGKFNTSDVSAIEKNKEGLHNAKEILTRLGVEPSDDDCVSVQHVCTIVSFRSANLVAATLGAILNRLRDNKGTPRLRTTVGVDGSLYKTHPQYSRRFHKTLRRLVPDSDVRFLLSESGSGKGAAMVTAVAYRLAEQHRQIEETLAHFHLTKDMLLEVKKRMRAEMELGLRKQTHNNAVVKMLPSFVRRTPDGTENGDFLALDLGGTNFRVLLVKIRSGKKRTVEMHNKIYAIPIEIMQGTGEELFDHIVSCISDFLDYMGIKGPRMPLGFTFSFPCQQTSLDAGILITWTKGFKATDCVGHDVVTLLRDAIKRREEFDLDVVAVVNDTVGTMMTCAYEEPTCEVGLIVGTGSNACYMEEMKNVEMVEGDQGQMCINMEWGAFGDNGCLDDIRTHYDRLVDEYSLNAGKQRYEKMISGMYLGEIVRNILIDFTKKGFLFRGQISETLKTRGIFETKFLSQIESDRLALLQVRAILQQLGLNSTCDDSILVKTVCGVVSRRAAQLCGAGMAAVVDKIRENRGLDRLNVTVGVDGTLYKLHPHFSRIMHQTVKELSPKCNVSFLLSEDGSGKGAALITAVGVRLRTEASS

Cytochrome P450 2D6 = Cytochrome P450 2D6 (Homo sapiens, UniProt P10635);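 further: CYP2D6 member of a cytochrome P450 panel assay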
[1] = molecular target: T3, Corticotropin-releasing factor receptor 2/Corticotropin-releasing factor-binding protein (Homo sapiens, UniProt P24387+Q13324); test: activators of CRF receptor 2 with binding protein – uHTS hits, confirmation (AID 602473); assay type: functional; conditions: read-out: EC50_Mean
T3 sequence (Q13324 whole entry): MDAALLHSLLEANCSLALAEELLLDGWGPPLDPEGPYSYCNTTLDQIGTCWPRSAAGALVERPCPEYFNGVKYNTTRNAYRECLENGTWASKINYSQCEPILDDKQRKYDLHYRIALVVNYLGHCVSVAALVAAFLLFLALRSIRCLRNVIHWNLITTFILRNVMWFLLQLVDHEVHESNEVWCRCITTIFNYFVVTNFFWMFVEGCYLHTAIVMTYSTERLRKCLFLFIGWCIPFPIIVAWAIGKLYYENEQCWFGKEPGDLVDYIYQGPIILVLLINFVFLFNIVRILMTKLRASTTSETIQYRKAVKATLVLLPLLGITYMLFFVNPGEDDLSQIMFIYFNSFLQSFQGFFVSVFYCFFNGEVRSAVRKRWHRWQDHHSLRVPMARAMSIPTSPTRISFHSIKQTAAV
T3 sequence (P24387 whole entry): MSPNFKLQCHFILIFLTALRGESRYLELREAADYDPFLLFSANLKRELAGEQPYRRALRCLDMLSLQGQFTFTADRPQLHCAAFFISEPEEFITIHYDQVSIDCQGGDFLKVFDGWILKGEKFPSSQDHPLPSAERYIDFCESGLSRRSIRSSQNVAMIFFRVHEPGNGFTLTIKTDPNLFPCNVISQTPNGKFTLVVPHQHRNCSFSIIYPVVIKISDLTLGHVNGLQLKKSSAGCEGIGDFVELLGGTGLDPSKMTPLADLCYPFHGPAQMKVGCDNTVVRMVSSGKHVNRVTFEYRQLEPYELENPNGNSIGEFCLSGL

Troponin, cardiac muscle = Troponin, cardiac muscle (Homo sapiens, UniProt P19429+P45379+P63316); test: Fluorescence-based biochemical high throughput dose response assay for activators of the calcium sensitivity of cardiac Regulated Thin Filaments (RTF). [Related pubchem assays (depositor defined):AID493008, AID493018, AID504382, AID504383]; assay type: protein-complex assay
[2] = molecular target: T4, Endoribonuclease toxin MazF (Escherichia coli K-12, UniProt P0AE70); test: fluorescent RNA oligo signal without MazF, dose response, counter-screen for MazEF activator project, biochemical, fluorescence, single-stranded RNase substrate (AID 588502); assay type: functional
T4 sequence (P0AE70 whole entry): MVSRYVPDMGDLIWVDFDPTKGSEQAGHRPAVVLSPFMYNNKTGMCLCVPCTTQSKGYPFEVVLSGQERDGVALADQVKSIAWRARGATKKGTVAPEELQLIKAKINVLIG

[3] = molecular target: T4, Endoribonuclease toxin MazF; test: MazF toxin RNase activators, dose response, biochemical, fluorescence, single-stranded RNA substrate, uHTS hits (AID 588481); assay type: functional
Phosphomannomutase 2 = molecular target: T5, Phosphomannomutase 2 (Homo sapiens, UniProt O15305); test: Counter screen SAR assay for PMM2 inhibitors via a fluorescence intensity assay. [Related pubchem assays (depositor defined):AID1545, AID1574]
T5 sequence (O15305 whole entry): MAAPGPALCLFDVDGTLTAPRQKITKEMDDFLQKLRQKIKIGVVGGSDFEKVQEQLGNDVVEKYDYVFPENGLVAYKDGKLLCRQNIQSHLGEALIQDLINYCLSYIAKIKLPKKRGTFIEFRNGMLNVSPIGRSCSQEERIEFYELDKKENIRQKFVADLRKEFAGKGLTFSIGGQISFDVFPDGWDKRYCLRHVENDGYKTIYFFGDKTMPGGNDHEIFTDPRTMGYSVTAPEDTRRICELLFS

[4] = molecular target: T6, Mannose-6-phosphate isomerase (Homo sapiens, UniProt P34949); test: PMI enzyme inhibitors, confirmation, biochemical, fluorescence intensity (AID 1535)
T6 sequence (P34949 whole entry): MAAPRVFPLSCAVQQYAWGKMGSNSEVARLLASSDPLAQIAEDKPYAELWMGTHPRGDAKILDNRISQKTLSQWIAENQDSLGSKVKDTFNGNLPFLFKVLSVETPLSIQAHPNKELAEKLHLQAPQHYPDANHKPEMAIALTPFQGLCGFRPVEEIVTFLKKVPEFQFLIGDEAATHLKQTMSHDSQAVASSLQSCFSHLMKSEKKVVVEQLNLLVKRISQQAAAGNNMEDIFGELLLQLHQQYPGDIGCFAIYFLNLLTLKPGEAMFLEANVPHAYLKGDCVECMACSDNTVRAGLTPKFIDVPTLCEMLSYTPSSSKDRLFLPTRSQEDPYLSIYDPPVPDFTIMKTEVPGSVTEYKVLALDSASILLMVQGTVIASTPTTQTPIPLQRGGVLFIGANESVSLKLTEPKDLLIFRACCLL

Cytochrome P450 1A2 = molecular target: T7, Cytochrome P450 1A2 (Homo sapiens, UniProt P05177);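 further: PubChem cytochrome P450 panel assay, CYP1A2 panel member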
T7 sequence (P05177 whole entry): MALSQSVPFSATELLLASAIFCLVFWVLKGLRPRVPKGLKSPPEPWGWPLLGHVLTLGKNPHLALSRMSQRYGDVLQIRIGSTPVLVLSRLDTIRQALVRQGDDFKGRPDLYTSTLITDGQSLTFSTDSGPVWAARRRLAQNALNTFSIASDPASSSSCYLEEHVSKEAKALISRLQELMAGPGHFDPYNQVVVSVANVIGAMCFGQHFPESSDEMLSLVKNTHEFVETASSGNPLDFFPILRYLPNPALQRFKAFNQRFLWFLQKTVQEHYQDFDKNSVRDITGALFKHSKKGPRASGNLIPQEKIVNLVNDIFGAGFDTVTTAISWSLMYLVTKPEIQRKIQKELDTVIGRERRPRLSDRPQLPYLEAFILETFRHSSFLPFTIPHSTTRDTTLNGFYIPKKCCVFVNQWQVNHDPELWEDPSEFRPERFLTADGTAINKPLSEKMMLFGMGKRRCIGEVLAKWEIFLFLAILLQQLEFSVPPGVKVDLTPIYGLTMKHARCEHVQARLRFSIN

Cytochrome P450 2C19 = Cytochrome P450 2C19 (Homo sapiens, UniProt P33261); test: Cytochrome panel assay with activity outcomes. Panel member name: p450-cyp2c19 Compounds with AC50 equal or less than 10 uM are considered active; assay type: functional; conditions: read-out: AC50
Vero = test: cells; assay type: functional; conditions: Chlorocebus sabaeus

Sequence of Cytochrome P450 2C9 (P11712 whole entry): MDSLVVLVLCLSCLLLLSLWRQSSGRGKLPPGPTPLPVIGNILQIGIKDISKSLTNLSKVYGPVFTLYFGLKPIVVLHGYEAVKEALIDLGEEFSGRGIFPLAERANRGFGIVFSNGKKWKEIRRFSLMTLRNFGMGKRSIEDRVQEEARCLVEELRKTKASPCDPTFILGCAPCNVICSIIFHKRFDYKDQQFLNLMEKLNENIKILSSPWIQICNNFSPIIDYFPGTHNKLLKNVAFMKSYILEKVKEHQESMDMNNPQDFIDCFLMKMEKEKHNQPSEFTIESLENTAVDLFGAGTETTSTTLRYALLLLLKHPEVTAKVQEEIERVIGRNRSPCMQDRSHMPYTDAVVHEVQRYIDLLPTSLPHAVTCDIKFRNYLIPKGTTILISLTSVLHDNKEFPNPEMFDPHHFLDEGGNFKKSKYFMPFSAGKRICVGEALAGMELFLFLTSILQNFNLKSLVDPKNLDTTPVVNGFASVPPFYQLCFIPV
Sequence of Cytochrome P450 3A4 (P08684 whole entry): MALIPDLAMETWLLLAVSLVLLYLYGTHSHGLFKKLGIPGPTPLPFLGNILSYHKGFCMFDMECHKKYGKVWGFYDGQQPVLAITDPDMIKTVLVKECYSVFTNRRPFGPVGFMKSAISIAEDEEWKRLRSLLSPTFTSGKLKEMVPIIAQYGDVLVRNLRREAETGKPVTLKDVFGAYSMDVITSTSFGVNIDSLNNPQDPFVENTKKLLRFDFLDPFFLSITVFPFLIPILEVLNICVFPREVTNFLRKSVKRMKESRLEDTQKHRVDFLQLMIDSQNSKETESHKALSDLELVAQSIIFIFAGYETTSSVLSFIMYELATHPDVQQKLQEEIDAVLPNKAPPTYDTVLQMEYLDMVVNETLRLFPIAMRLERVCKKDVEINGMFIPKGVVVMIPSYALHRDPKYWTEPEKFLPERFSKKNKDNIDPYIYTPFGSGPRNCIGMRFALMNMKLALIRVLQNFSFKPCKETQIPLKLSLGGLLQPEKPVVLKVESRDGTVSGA
Sequence of Cytochrome P450 2C19 (P33261 whole entry): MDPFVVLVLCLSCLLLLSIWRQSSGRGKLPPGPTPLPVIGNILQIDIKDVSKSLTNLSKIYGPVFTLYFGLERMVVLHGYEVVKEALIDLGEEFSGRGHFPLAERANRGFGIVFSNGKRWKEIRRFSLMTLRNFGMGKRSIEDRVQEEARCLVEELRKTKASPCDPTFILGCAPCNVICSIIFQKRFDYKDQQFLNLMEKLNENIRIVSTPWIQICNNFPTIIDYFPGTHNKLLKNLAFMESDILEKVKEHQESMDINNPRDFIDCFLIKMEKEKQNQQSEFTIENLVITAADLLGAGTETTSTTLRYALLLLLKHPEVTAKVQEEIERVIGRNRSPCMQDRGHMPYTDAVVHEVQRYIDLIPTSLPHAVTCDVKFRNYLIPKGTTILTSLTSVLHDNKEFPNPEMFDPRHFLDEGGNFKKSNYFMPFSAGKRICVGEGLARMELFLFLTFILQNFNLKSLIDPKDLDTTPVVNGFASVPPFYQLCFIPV
Sequence of Cytochrome P450 2D6 (P10635 whole entry): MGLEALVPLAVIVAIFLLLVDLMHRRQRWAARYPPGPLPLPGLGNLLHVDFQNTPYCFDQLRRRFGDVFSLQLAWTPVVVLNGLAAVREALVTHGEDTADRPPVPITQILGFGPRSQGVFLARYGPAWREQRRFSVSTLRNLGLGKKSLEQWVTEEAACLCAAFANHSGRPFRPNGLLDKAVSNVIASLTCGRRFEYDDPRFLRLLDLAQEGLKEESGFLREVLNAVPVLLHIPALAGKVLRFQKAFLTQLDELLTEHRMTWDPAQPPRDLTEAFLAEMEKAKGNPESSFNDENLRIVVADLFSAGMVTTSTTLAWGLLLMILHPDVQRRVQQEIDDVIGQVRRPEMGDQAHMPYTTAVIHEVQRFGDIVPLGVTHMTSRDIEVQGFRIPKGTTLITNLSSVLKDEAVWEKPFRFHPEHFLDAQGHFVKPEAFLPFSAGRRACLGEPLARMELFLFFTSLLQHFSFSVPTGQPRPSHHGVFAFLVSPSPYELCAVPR

## Cc1cc2cc(CNC(=O)CC(C)C)ccc2n1C
Cytochrome P450 3A4
  AC50: 15.8 µM (inconclusive)
Cytochrome P450 2C9
  AC50: inconclusive

## CCOC(=O)c1c(C)[nH]c(C2=NN=C(Nc3ccccc3)SC2)c1C
Hexokinase HKDC1
  EC50: 24.3 µM (inactive)
Hexokinase-1
  EC50: 18.2 µM (active)

## COc1ccc(OC)c(S(=O)(=O)N2CCC(C(=O)NCCc3ccccc3)CC2)c1
Cytochrome P450 2D6
  AC50: 2.24 µM (inconclusive)
Cytochrome P450 3A4
  AC50: 39.8 µM (inconclusive)
Cytochrome P450 2C9
  AC50: inconclusive

## COc1ccc(OC)c(/C=C2\N=C(c3ccccc3)OC2=O)c1
[1]
  EC50: 2.29 µM (active)
Troponin, cardiac muscle
  EC50: 2.58 µM (active)
[2]
  EC50: 39.1 µM (inactive)
[3]
  EC50: > 99 µM (inactive)

## Cc1cc2n(n1)SC(Nc1cccc3ccccc13)N2 (centres undefined)
Phosphomannomutase 2
  IC50: > 100 µM (inactive)
[4]
  IC50: > 50 µM (inactive)

## COC(=O)c1ccccc1NC(=O)C(CCS(C)(=O)=O)NC(C)=O (centres undefined)
Cytochrome P450 1A2
  AC50: 20 µM (inconclusive)
Cytochrome P450 2C9
  AC50: inconclusive
Cytochrome P450 2C19
  AC50: 39.8 µM (inconclusive)

## Cn1c(SSc2ccc(-c3cccnc3)n2C)ccc1-c1cccnc1
Hexokinase HKDC1
  EC50: 14.8 µM (active)
Vero
  CC50: 16.8 µM (active)
Hexokinase-1
  EC50: 14.2 µM (active)
